Source: PMC7582725, “Suppression of hTAS2R16 Signaling by Umami Substances” (International Journal of Molecular Sciences, 2020)

Molecular target: T1, hTAS2R16 (Homo sapiens, UniProt Q9NYV7)
T1 construct: expressed in transfected cells; host or cells: HEK293T
T1 sequence (Q9NYV7 1-291): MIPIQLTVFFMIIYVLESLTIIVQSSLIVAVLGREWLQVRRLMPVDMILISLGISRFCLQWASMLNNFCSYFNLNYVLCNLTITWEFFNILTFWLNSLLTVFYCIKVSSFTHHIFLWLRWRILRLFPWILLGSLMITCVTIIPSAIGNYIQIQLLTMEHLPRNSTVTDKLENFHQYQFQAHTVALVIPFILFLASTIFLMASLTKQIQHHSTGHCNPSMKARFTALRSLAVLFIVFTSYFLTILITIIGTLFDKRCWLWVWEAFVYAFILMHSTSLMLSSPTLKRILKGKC
Experiment: Ca2+ response of hTAS2R16-expressing HEK293T cells to bitter ligands in absence and presence of umami substances (Figure 1; fura-2 F340/F380 imaging / cell-based assay)
Conditions: for Ca2+ response of cells expressing TAS2R16 on stimulation with ligand: Figure 1D,E
Protocol: We first verified if non-peptide umami substances affect the downstream signaling mechanism, such as changes in intracellular Ca^2+ of the human bitter taste receptor. […] The increase in fluorescence intensity ratio (F340/F380) with 10 mM salicin was expressed as 100. […] In addition to salicin, hTAS2R16 also recognizes bitter sugars such as phenyl β-D-glucopyranoside and arbutin, a glycosylated hydroquinone extracted from the bearberry plant in the genus Arctostaphylos.
(A) Chemical structures of tested compounds. Summarized data (B) and representative traces (C) showing responses of HEK293T cells co-expressing hTAS2R16 and Gα16gust44 to 10 mM salicin in the absence and presence of umami substances in a cell-based assay. (D,E) Representative ratiometric images of fura-2-loaded hTAS2R16-expressing cells in response to the other ligands, 5 mM arbutin (D) or phenyl β-D-glucopyranoside (E), in the presence of umami substances. The data were normalized as percentages to the maximal signal obtained with the ligands. The color scale indicates the F340/F380 ratio. Scale bar: 11.04 μm. Data are presented as means ± standard error of the mean (SEM) of at least three separate experiments. * p < 0.05, ** p < 0.01, and *** p < 0.001 vs. the 0 mM sample group by Student’s t-test.
The umami substances-induced changes in the cytosolic Ca^2+ concentration were measured using a FlexStation III microplate reader (Molecular Devices, Sunnyvale, CA, USA). HEK293T cells transfected with hTAS2R16 were seeded onto 96-well black-wall CellBind surface plates (Corning, NY, USA) for 18–24 h before use. […] The cells were incubated in the dark for 30 min at 37 °C, and then for 15 min at 27 °C in assay buffer consisting of Calcium-4 (FLIPR Calcium 4 Assay Kit, Molecular Devices) and probenecid or the umami compounds. […] The relative changes in cell Ca^2+ were plotted as ΔF/F0 on the y-axis, where ΔF is the change in Calcium-4 fluorescence intensity at each time point and F0 is the fluorescence intensity before treatment. The relative response induced by 10 mM salicin was assigned a value of 100.
Cells were seeded onto 96-well black-wall imaging plates (BD Falcon Labware) for 18–26 h prior to their use in an experiment. […] The cells were rinsed with the buffer, incubated in probenecid or sample for 30 min, and then treated with solution containing the ligand. The Fura-2AM-induced fluorescence intensity (excitation at 340 and 380 nm) was measured at emission wavelength of 510 nm using a computer-controlled filter changer (Lambda DG4; Sutter, San Rafael, CA, USA), an Andor Luca CCD camera (Andor Technology, Belfast, UK), and an inverted fluorescence microscope (IX-71; Olympus, Tokyo, Japan). Images were obtained at 3-s intervals and analyzed using MetaFluor software (Molecular Devices, Sunnyvale, CA, USA).

Row | Compound | inhibition of Ca2+ response to arbutin (5 mM arbutin, MSG 80 mM, IMP 20 mM, L-theanine 80 mM, Glu-Glu 6 mM, Gly-Gly 6 mM) | reduction of intracellular Ca2+ influx evoked by salicin (10 mM salicin, MSG 10 and 80 mM, IMP 10 and 20 mM, L-theanine 10 and 80 mM, Glu-Glu 6 mM, probenecid 0.1 and 0.3 mM, Gly-Gly 6 mM) | inhibition of Ca2+ response to phenyl β-D-glucopyranoside (phenyl β-D-glucopyranoside, MSG 80 mM, IMP 20 mM, L-theanine 80 mM, Glu-Glu 6 mM, Gly-Gly 6 mM) | Ca2+ response of cells expressing TAS2R16 on stimulation with ligand
1 | Gly-Gly | not | not | not | –
2 | OC[C@H]1O[C@@H](Oc2ccccc2)[C@H](O)[C@@H](O)[C@@H]1O [phenyl β-D-glucopyranoside] | – | – | – | increase in Ca^2+
3 | OC[C@H]1O[C@@H](Oc2ccc(O)cc2)[C@H](O)[C@@H](O)[C@@H]1O [arbutin] | – | – | – | increase in Ca^2+
